Test systems include UO-31 renal; RXF 393 renal; 786-0 renal; SK-MEL-28 melanoma; UACC-62 melanoma; SW-620 colon; HOP-92 NSCLC; MALME-3M melanoma; MDA-MB-231 breast; HT29 colon.
Holding throughout (assay): NCI-60 cell line screen, 48 h

Several values for one entry are separate records, joined by “and”; a condition that tells them apart may be missing. Equal values may be shown once.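 All cell lines were grown in 96-well plates and treated with compound for 48 hours. Here, GI50 denotes the concentration required for 50% inhibition of growth. TGI marks complete inhibition of growth.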

As to `CN(C)c1ccc2c(c1)Sc1cc(N(C)C)ccc1N2C(=O)c1ccccc1`, the GI50 in the assay on UO-31 renal was 8.23 µM; in the assay on RXF 393 renal it was 28.7 µM; with 786-0 renal, 32.8 µM; with SK-MEL-28 melanoma, 43.1 µM; with UACC-62 melanoma, 17.5 µM; in the assay with SW-620 colon, 71.6 µM. The GI50 in the assay with HOP-92 NSCLC was 5.04 µM; in the assay on MALME-3M melanoma, 21.4 µM; with MDA-MB-231 breast, 64.2 µM. Moreover, the TGI in the assay on UO-31 renal, with RXF 393 renal, with 786-0 renal, in the assay with SK-MEL-28 melanoma, with UACC-62 melanoma and in the assay with SW-620 colon was above 100 µM in each case. Besides, the TGI with HOP-92 NSCLC was 89.9 µM; in the assay with MALME-3M melanoma, 77.1 µM; in the assay on MDA-MB-231 breast it was above 100 µM.
For the molecule `C=CC(=O)N1CCN(c2ccc3cccc(NC(=O)c4cnc(C)cn4)c3n2)CC1`, the GI50 with UO-31 renal was 0.351 µM; in the assay on RXF 393 renal it was 1.45 µM; in the assay with 786-0 renal it was 1.77 µM; with HT29 colon, 4.05 µM; in the assay with SK-MEL-28 melanoma, 7.88 µM; in the assay with UACC-62 melanoma, 2.46 µM. The GI50 with SW-620 colon is 4.85 µM; in the assay on HOP-92 NSCLC it was 2.68 µM; in the assay with MALME-3M melanoma, 2.89 µM; in the assay on MDA-MB-231 breast, 3.5 µM. Also, the TGI is 5.14 µM in the assay on UO-31 renal; 9.46 µM in the assay on RXF 393 renal; above 100 µM with 786-0 renal; above 100 µM in the assay with HT29 colon; 20.5 µM in the assay with SK-MEL-28 melanoma; 15.6 µM with UACC-62 melanoma. Besides, the TGI with SW-620 colon is 34.9 µM; in the assay on HOP-92 NSCLC it was above 100 µM; in the assay on MALME-3M melanoma it was 15.9 µM; in the assay on MDA-MB-231 breast it was above 100 µM.
Regarding `CC(C)CC(CC1=CCC2CC1C2(C)C)C1=C(O)C(C)(C)C(=O)C(C)(C)C1=O` (centres undefined), the GI50 was 0.272 µM with UO-31 renal; 0.434 µM with RXF 393 renal; 0.363 µM in the assay on 786-0 renal; 0.383 µM in the assay on HT29 colon; 0.266 µM in the assay with UACC-62 melanoma; 0.4 µM with SW-620 colon. In addition, the results for the GI50 with HOP-92 NSCLC, in the assay with MALME-3M melanoma and with MDA-MB-231 breast were 0.191 µM, 0.295 µM and 0.247 µM, respectively. The TGI was 2.4 µM in the assay with UO-31 renal; 3.83 µM in the assay with RXF 393 renal; above 100 µM in the assay on 786-0 renal; 11.2 µM with HT29 colon; 1.17 µM in the assay on UACC-62 melanoma; above 100 µM in the assay on SW-620 colon. The TGI in the assay with HOP-92 NSCLC came to 0.499 µM; with MALME-3M melanoma, 1.13 µM; in the assay on MDA-MB-231 breast, 0.717 µM.
For the molecule `Cc1cc(N/N=C/c2nc(-c3ccc(Br)cc3)oc2C)c2cc(Cl)ccc2n1`, the GI50 with UO-31 renal, in the assay on RXF 393 renal, in the assay with 786-0 renal, in the assay with HT29 colon, in the assay on SK-MEL-28 melanoma and with UACC-62 melanoma was above 100 µM throughout. Also, the GI50 with SW-620 colon, in the assay with HOP-92 NSCLC, in the assay with MALME-3M melanoma and in the assay on MDA-MB-231 breast was above 100 µM each time. Moreover, the TGI with UO-31 renal, in the assay with RXF 393 renal, with 786-0 renal, in the assay with HT29 colon, in the assay with SK-MEL-28 melanoma and in the assay on UACC-62 melanoma was above 100 µM in each case. For the same molecule, the TGI in the assay on SW-620 colon, in the assay on HOP-92 NSCLC, with MALME-3M melanoma and in the assay with MDA-MB-231 breast was above 100 µM each time.
With `O=S(=O)(NCCNC/C=C/c1ccc(Br)cc1)c1cccc2cnccc12`, the GI50 in the assay with UO-31 renal is 4.8 µM and 5.17 µM; in the assay on RXF 393 renal, 3.37 µM and 9.08 µM; with 786-0 renal, 4.22 µM and 9.27 µM; in the assay with HT29 colon, 5.44 µM and 13.7 µM; with SK-MEL-28 melanoma, 7.33 µM and 11.2 µM; in the assay on UACC-62 melanoma, 9.35 µM and 14.5 µM. Also, the GI50 with SW-620 colon is 12.6 µM and 16.8 µM; in the assay with HOP-92 NSCLC it was 1.59 µM and 2.8 µM; in the assay on MALME-3M melanoma, 7.39 µM and 12.7 µM; with MDA-MB-231 breast, 8.1 µM and 14.2 µM. Besides, the TGI is 18.4 µM and 20.2 µM with UO-31 renal; 15.6 µM and 22.3 µM in the assay on RXF 393 renal; 19.8 µM and 21.9 µM in the assay with 786-0 renal; 18.9 µM and 28.8 µM in the assay with HT29 colon; 20 µM and 25.4 µM in the assay on SK-MEL-28 melanoma; 22.2 µM and 30.2 µM in the assay with UACC-62 melanoma. In addition, the TGI in the assay with SW-620 colon is 27.6 µM and 32.4 µM; with HOP-92 NSCLC it was 9.81 µM and 11.8 µM; in the assay with MALME-3M melanoma it was 23 µM and 26.9 µM; in the assay on MDA-MB-231 breast, 21.7 µM and 29.7 µM.
On to `C[C@]12CCC3[C@@H](CC[C@@H]4c5nonc5CC[C@]34C)C1CCC(=O)N2` (some centres undefined), for which the TGI with UO-31 renal, with RXF 393 renal, with 786-0 renal, with HT29 colon, in the assay on SK-MEL-28 melanoma and in the assay with UACC-62 melanoma was above 100 µM in each case. Besides, the TGI with SW-620 colon is above 100 µM; in the assay on HOP-92 NSCLC, above 95.1 µM; with MALME-3M melanoma, above 100 µM; in the assay with MDA-MB-231 breast, above 100 µM. Moreover, the values for the GI50 with UACC-62 melanoma, with HOP-92 NSCLC and in the assay with MDA-MB-231 breast were above 84 µM, 40.4 µM and above 100 µM, respectively.
As to `O=[N+]([O-])c1cccc(-c2nc3sccn3c2-c2ccnc(NCCCNS(=O)(=O)c3cccc(F)c3)n2)c1`, the GI50 in the assay on UO-31 renal was 1.25 µM; in the assay with RXF 393 renal it was 8.13 µM; with 786-0 renal it was 7.97 µM; with HT29 colon, 3.12 µM; in the assay on SK-MEL-28 melanoma it was 2.63 µM; with UACC-62 melanoma it was 1.16 µM. Besides, the GI50 in the assay on SW-620 colon was 4.12 µM; with HOP-92 NSCLC, 2.8 µM; in the assay on MALME-3M melanoma, 2.14 µM; in the assay on MDA-MB-231 breast, 6.41 µM. For the same molecule, the TGI was 9.04 µM in the assay with UO-31 renal; 41.6 µM in the assay with RXF 393 renal; 45.6 µM with 786-0 renal; above 100 µM in the assay with HT29 colon; 7.76 µM with SK-MEL-28 melanoma; 4.26 µM with UACC-62 melanoma. Also, the TGI in the assay with SW-620 colon is above 100 µM; in the assay on HOP-92 NSCLC, 30.3 µM; in the assay on MALME-3M melanoma, 7.06 µM; with MDA-MB-231 breast, 27.2 µM.
Turning to `CN1CCN(Cc2ccc(NC(=O)c3cncc(C#Cc4cnc(N)c5ccncc45)c3)cc2C(F)(F)F)CC1`, the GI50 in the assay on UO-31 renal was 0.918 µM; in the assay with RXF 393 renal, 0.516 µM; in the assay with 786-0 renal, 1.73 µM; in the assay on HT29 colon, 0.212 µM; in the assay with SK-MEL-28 melanoma it was 0.245 µM; in the assay with UACC-62 melanoma, 0.227 µM. Besides, the GI50 in the assay with SW-620 colon is 0.418 µM; in the assay with HOP-92 NSCLC, 0.306 µM; with MALME-3M melanoma, 0.106 µM; in the assay with MDA-MB-231 breast, 0.307 µM. For the same molecule, the TGI amounted to 2.49 µM in the assay with UO-31 renal; 2.28 µM in the assay on RXF 393 renal; 7.48 µM in the assay with 786-0 renal; 6.42 µM in the assay on HT29 colon; 2.18 µM with SK-MEL-28 melanoma; 1.86 µM in the assay with UACC-62 melanoma. The TGI in the assay on SW-620 colon was found to be 3.46 µM; with HOP-92 NSCLC, 1.93 µM; in the assay with MALME-3M melanoma, 0.404 µM; in the assay with MDA-MB-231 breast, 1.26 µM.
